Laboratory results as given in patent publication US20210322350A1, “EXOGENOUS KETONE SUPPLEMENTATION COMPOSITIONS, SYSTEMS AND METHODS” (Ketone Clarity LLC, priority 2020, published 2021).

How the values were obtained:
[1] = Glucose/Ketone Index (GKI); format: in vivo, human
Procedure: Introducing GKI: Measuring Glucose vs Ketones. FIG. 8 is a schematic illustration of the Glucose/Ketone Index. When measuring both blood ketone levels and blood glucose levels, taking reference from the Glucose/Ketone Index (GKI) can help guide a user to achieve therapeutic benefits according to the claimed invention. The Glucose/Ketone Index is measured by dividing the blood level of glucose by the blood level of ketones measured in mmol/L. By way of illustration, a healthy individual not following the ketogenic diet could have glucose levels of 5.0 mmol/L and ketone levels of 0.1 mmol/L. According to the GKI they would have a value of greater than 9 and as such would not be in ketosis. An individual following the ketogenic diet and potentially supplementing their diet with ketone salts or MCT oil may have a glucose level of 5.6 mmol/L and ketone level of 1.3 mmol/L, resulting in a GKI of 4.3. This moderate ketosis level can be useful for managing obesity and diabetes.
(§1) FIG. 9 is a graphical illustration of blood levels of ketones and glucose resulting from the claimed invention. In the graphical illustration, body ketone levels increase from 1.4 mmol/L to 2.7 mmol/L after 50 minutes of consuming 10 g of D-BHB. […]

[2] = Blood ketone levels after exogenous ketone supplementation; format: in vivo, human
Description: Technical effect: raising blood ketone levels by currently known methods. FIG. 6 is a graphical illustration of exogenous ketone blood levels by three precursors using Medium Chain Triglycerides, ketone salts and ketone esters. […] In the healthy adult, blood ketone levels can be naturally raised from a 0.0 mmol/L baseline to 0.5 mmol/L while following a normal diet.
While MCT oil can raise blood ketone levels for a long duration, often the rise in ketone levels is nominal at best with a 0.5 mmol/L increase. Ketone salts can raise blood ketone levels to 1.5 mmol/L, but often do so with a metabolic load of heavy salt ingestion along with an undesired racemic mixture of both ‘D’ and ‘L’ isomers of BHB. The so called “ketone ester” synthetic products can raise blood ketone levels to 2-4 mmol/L when consumed at 30-35 g of product but the result is often short lasting.
FIG. 7 is a graphical illustration of D-BHB exogenous ketone blood levels.
as §1

[3] = Anti-depression and anti-anxiety mood enhancement; format: in vivo; details: in the absence of anti-depressant and/or anti-anxiety medication; at least 10 g at least twice per day
Description: FIG. 18 is a graphical illustration of improved mental anti-depression and anti-anxiety activity resulting from enhanced D-BHB levels according to the claimed invention. […] While preferred consumption of natural D-BHB can range from 10 g-30 g of natural D-BHB, a best illustrative example reflects at least 10 g exogenous D-BHB supplementation at least twice per day.

[4] = Physical endurance on a measured exercise course; format: in vivo
Description: FIG. 16 is a graphical illustration of improved physical endurance resulting from enhanced D-BHB levels according to the claimed invention. While understanding of the mechanism of ketone enhancement of physical endurance is only beginning, there is a direct and measurable benefit of consumption of natural D-Beta HydroxyButyric acid to enhance physical exertion and post-exercise activity recovery. FIG. 16 illustrates the physical performance parameter in which a subject with and without natural D-BHB ketone supplementation is impeded by shortness of breath and muscle pain and drop in performance owing to lactic acid build-up in the body. Without natural D-BHB ketone supplementation on a measured exercise course pain and fatigue will occur after 27 minutes. […] While preferred consumption of natural D-BHB can range from 10 g-30 g of natural D-BHB, lesser or greater amounts may also be safely consumed for exercise improvement and benefits.

[5] = Blood oxygen levels before and after D-BHB; format: in vivo; details: 30 minutes after 10 g; from 80%
Description: FIG. 13 is a graphical illustration of enhanced blood oxygen resulting from enhanced D-BHB levels according to the claimed invention.

[6] = Systolic and diastolic blood pressure after D-BHB ingestion; format: in vivo; details: 10 g; measurable within an hour, remains several hours
Description: FIG. 12 is a graphical illustration of improved blood pressure resulting from enhanced D-BHB levels according to the claimed invention. In addition to increasing blood ketones and lowering blood glucose, consumption of exogenous D-BHB according to the claimed invention also has a direct and measurable impact on lowering blood pressure. […] Blood pressure reduction is measurable within an hour of ingestion and is positive effects of lower blood pressure remain for several hours afterwards.

[7] = Bone density measurements during D-BHB consumption; format: in vivo; details: 10 g daily; period during which bone loss was expected
Description: FIG. 20 is a graphical illustration of sustained bone protection resulting from enhanced D-BHB levels according to the claimed invention. Loss of bone density can be statistically predicted and measured during specific time of life events such as post-menopause as well as during space missions for astronauts in space. […] Similar benefits against bone loss for space based applications are indicated and expected with consumption of 20 g of exogenous D-BHB daily.

[8] = Gout pain and inflammation; format: in vivo
Description: FIG. 21 is a graphical illustration of gout reduction resulting from enhanced D-BHB levels according to the claimed invention. Owing to the role of exogenous natural D-BHB as a regulatory element of the NLRP3 inflammasome, inflammations are reduced as a direct result of exogenous D-BHB supplementation. In a preferred embodiment, 10 g or more of D-Beta HydroxyButyric acid is consumed daily to reduce gout flare-ups.

[9] = Blood glucose levels after D-BHB consumption; format: in vivo, human
Procedure: FIG. 9 is a graphical illustration of blood levels of ketones and glucose resulting from the claimed invention. In the graphical illustration, body ketone levels increase from 1.4 mmol/L to 2.7 mmol/L after 50 minutes of consuming 10 g of D-BHB. While ketone levels increase, glucose levels are decreased from 5.2 mmol/L to 4.8 mmol/L. While blood ketone rates can change rapidly as ketones are consumed through exercise or metabolic activity, the lowering of glucose often happens over a prolonged period of time. Consequently, this example is a good introduction to the regulatory effects of the ketone body D-BHB which are independent of and often outlast the energy benefits provided by exogenous ketones even after they are consumed by the body.
FIG. 14 is a graphical illustration of lowered blood glucose measured in mmol/L as a result of daily 10 g consumption resulting from enhanced D-BHB levels according to the claimed invention. Diet plays a key role in the onset and progression of Type II diabetes and pre-diabetic conditions. The hallmark indication of the progression of this disease is identified through measurement of blood glucose levels. […] In a preferred embodiment 10-20 g of D-BHB are consumed, but more or less can be utilized in other embodiments of the claimed invention.

[10] = Sleep cycles (deep and light sleep time) with D-BHB taken prior to sleep; format: in vivo; details: over several sleep cycles
Description: During deep sleep, a variety of functions take place in the mind and body. During deep sleep not only does physical recovery occur. The brain recuperates as well during which memories are consolidated and learning and emotions are processed. Physiologically, blood sugar levels and metabolism balance out and the immune system is energized. FIG. 11 is a graphical illustration of improved sleep time resulting from enhanced D-BHB levels according to the claimed invention based on the data detailed in Table 1.
The data gathered in Table 1 reflects unaided sleep cycles in bold together with sleep aided by 10-20 g D-BHB which is reflective of a preferred embodiment of the claimed invention. On average, unaided sleep results in approximately 1.5 hours of deep sleep in an eight hour sleep cycle. […] In a preferred and foreseen embodiment of the claimed invention, improved deep sleep is achieved as a result of exogenous ketone D-BHB supplementation.

[11] = Sensation of hunger after waking; format: in vivo; details: several hours after rising in the morning
Description: FIG. 15 is a graphical illustration of lowered hunger resulting from enhanced D-BHB levels according to the claimed invention. While the sensation of hunger itself arises from a complex interplay of glucose, insulin and the hormone ghrelin, identification and measurement of hunger is easy and straightforward according to the claimed invention. Hunger is often a key reason why diet attempts such as attempting to follow the ketogenic diet or other diets fail. Hunger is also a significant impediment to individuals attempting to undergo a fasting state for health or other purposes. While even consuming a moderate amount such as 5 g of exogenous natural D-BHB ketone supplement can reduce the sensation of hunger, regular consumption of larger amounts such as 10 g-20 g represent a preferred embodiment of the claimed invention. […] Hunger reduction, however, is provided at any time of day according to the claimed invention and is not just morning dependent.

HDAC = details: cited from earlier work
[12] = consumed at 30-35 g of product; short lasting; cited from earlier work
[13] = 750 mg/kg by gavage 24 hours after 0.5 or 6 Gy radiation; cited from earlier work

For CC(O)CC(=O)O [D-BHB, D-Beta-HydroxyButyric Acid], the “Glucose/Ketone Index (GKI)” value ([1]; after consuming 10 g) was 1.8, the GKI levels ([1]; regular D-BHB consumption) was 1-3 and the body ketone level ([2]; 50 minutes after consuming 10 g, from 1.4 mmol/L) was 2.7 mmol/L. For the same molecule, the “blood ketone levels versus existing methods” value ([2]; consumption of 10-30 g) was “higher blood ketone levels”, the cognitive mood enhancement [3] was “cognitive improvement” and the post-workout recovery time [4] was “markedly reduced”. The “range of performance before pain and fatigue” value ([4]; 27 minutes without supplementation) was 44 min, the blood oxygen level [5] was 99% and the “systolic and diastolic blood pressure” value [6] was “measurable decrease”. The bone density [7] was “bone density health and retention”, the gout pain ([8]; 15 g, in three days) was “from extreme to very moderate” and the gout inflammation ([8]; continued daily consumption, in less than one week) was “entirely removed gout inflammation”. For the same molecule, the glucose level ([9]; after consuming 10 g, from 5.2 mmol/L) was 4.8 mmol/L, the blood glucose level ([9]; daily 10 g consumption, baseline over 7 mmol/L) was ≤ 4 mmol/L and the “extension of deep sleep” value [10] was “extended by over an hour”. For the same molecule, the sensation of hunger [11] was “greater reduction to even omission of hunger sensations”.

For CC(O)CC(=O)[O-].[Na+] (centres unmarked) [b-OHB], the renal dysfunction (HDAC; IR-injured kidney) is given as “ameliorated renal dysfunction” and the “HDAC activity in the IR-injured kidney” value (HDAC) is given as “inhibited HDAC activity”.

For C[C@@H](O)CCOC(=O)C[C@@H](C)O [ketone ester, (R)-3-hydroxybutyl (R)-3-hydroxybutyrate], the “blood ketone levels raised to” value [12] is given as 2 to 4 mmol/L and the “radiation-induced decrease of reticulocyte/erythrocyte ratio in bone marrow” value [13] is given as “significantly attenuated”.
